In patent US20240382497A1, “PROPHYLACTIC OR THERAPEUTIC AGENT FOR HYPOXIC INJURY, ISCHAEMIA-REPERFUSION INJURY AND INFLAMMATION, CELL PROTECTION AGENT FOR TRANSPLANTATION, AND BIO-PRESERVATION AGENT” (priority 2018, published 2024):

Columns and labels:
C57/BL6N male mice [1] = test: Core body temperature under the odor conditions of Example 14; assay type: in vivo, mouse; conditions: odor presentation conditions of Example 14
Experimental: An influence of a thiazoline-related compound and an odor molecule that induces learned fear on the core body temperature was analyzed. A radio-telemetry device for monitoring biological parameters (manufactured by Physiotel) was surgically implanted in the abdomen of male C57/BL6N mice (about 3 months old). The mice were subjected to the following experiment after about 10 days of recovery period. […] The information of body temperature was recorded every 10 sec using Dataquest A.R.T. software (DataScience international). The value of the core body temperature change was calculated as the difference between the mean core body temperature for 10 min when water was presented and the mean core body temperature for 20 min when each odor molecule was presented, and the change in the core body temperature without odor was set to 0. […]
Skin ischemia-reperfusion injury model mouse was generated as follows according to the method of Uchiyama et al. (Uchiyama et al., Sci Rep 5:9072, 2015). […] The condition of the skin on the back, which was pinched between magnets, was recorded by taking photographs every day. Based on the obtained images, the wound area was quantified with image analysis software (Photoshop, Adobe). Furthermore, changes in the core body temperature when the odor was presented under the same conditions as in this Example were measured by the same experimental method as in Example 2.

[2] = system: cerebral ischemia-reperfusion injury model mouse; test: Cerebral ischemia-reperfusion injury, MAP2-unstained area; assay type: in vivo; conditions: about 80 mg/kg i.p. at the reperfusion, two days after reperfusion, versus saline
Experimental: The bilateral common carotid arteries of about 3-month-old C57/BL6 mouse were ligated by clips to induce cerebral ischemia injury, and the blood was reperfused by removing the clips 30 min later. A thiazoline-related compound (2MT) solution (200 μl, about 80 mg/kg), or saline, as a control, was intraperitoneally administered at the reperfusion. Two days after the reperfusion, the brain tissue of the mouse was removed, brain sections were prepared, and the injured region was analyzed by antibody staining with Microtubule-associated protein 2 (MAP2).

Interleukin-1β (IL-1β) = test: Blood IL-1β in LPS sepsis model (ELISA); assay type: in vivo, mouse; conditions: about 80 mg/kg i.p., 1 hr and 4 hr, versus saline
Experimental: (§1) Lipopolysaccharide (LPS) (0.6 mg/kg) was intraperitoneally administered to male Balb/c mice (about 2-3 months old) to generate a sepsis model. Immediately after the LPS administration, 200 μl (about 80 mg/kg) of a solution prepared by diluting various heterocyclic compounds and isothiocyanate compounds 100 times with saline was intraperitoneally administered. Blood samples were collected 60 min after LPS and compound administration, EDTA plasma was prepared, and the blood level of inflammatory cytokine TNF-a was measured by the ELISA method.
A sepsis model mouse was prepared by the same method as in Example 18. Immediately after the LPS administration, 200 μl (about 80 mg/kg) of a thiazoline-related compound (2MT) solution prepared by diluting 100 times with saline was intraperitoneally administered. Blood samples were collected 1 hr and 4 hr after administration of LPS and thiazoline-related compound (2MT), EDTA plasma was prepared, and the blood levels of inflammatory cytokine Interleukin-1β (IL-1β), and anti-inflammatory cytokine Interleukin-10 (IL-10) were measured by the ELISA method.

sepsis model mouse = test: Survival time in LPS sepsis model; assay type: in vivo; conditions: about 80 mg/kg i.p., versus saline
Experimental: as §1
A sepsis model mouse was prepared by the same method as in Example 18. Immediately after the LPS administration, 200 μl (about 80 mg/kg) of a thiazoline-related compound (2MT) solution prepared by diluting 100 times with saline was intraperitoneally administered. The survival time of the mouse was measured when the thiazoline-related compound (2MT) was administered and when saline, as a control, was administered (saline).

C57/BL6N male mice [3] = test: Respiratory rate on odor presentation (pulse oximeter); assay type: in vivo, mouse; conditions: filter paper scented with 271 μmol odor, 20 min
Experimental: An influence of a thiazoline-related compound and an odor molecule that induces learned fear on the respiratory rate was analyzed. The respiratory rate was analyzed using a pulse oximeter (Mouse Oxplus; STARR Life Science). A pulse oximeter was attached to the neck of C57/BL6N male mice (about 3-month-old) from about 1 week before the test and the mice were acclimated by repeating this operation. The mice were anesthetized with pentobarbital (50 mg/kg, i.p.) 2 days before the test, and the neck hair was depilated with depilatory cream. On the day of testing, an oximeter probe was attached to the shaven neck. After confirming that the signal became stable, the no odor baseline was measured for 10 min, changes in the respiratory rate when the thiazoline-related compound (2MT) or neutral odor (Eugenol; Eug) was presented was measured for 20 min (each n=6). The odors were presented by placing filter papers scented with 271 μmol of odor in the test cage. The oximeter signal was obtained at 1 Hz.

CC1=NCCS1 [2MT, 2-methyl-2-thiazoline]
core body temperature (C57/BL6N male mice [1]): remarkable decrease in the core body temperature
area of the injured region of the brain (not stained with MAP2) [2]: reduce cerebral ischemia-reperfusion injury
blood concentration of IL-1β (Interleukin-1β (IL-1β)): decreased the blood concentration of inflammatory cytokine IL-1β
survival time in sepsis model (sepsis model mouse): extending the survival time
respiratory rate (C57/BL6N male mice [3]): reduced the respiratory rate by about half
